According to patent publication US20050255163A1, “Co-grinding process for the preparation of a ternary composition” (priority 2002, published 2005):
≈ marks a conversion by molar mass, not a printed value.

Tests used:
Assay type in all cases: physicochemical
[1] = DSC enthalpy of fusion and percentage residual crystallinity of co-ground compositions; conditions: enthalpy of fusion of the active substance as such, before co-grinding
Text: The compositions obtained by operating according to the examples reported below have been characterised by DSC and from the enthalpy of fusion the percentage residual crystallinity has been calculated.

[2] = Percentage of active substance released under sink conditions (dissolution speed)
Experimental: In FIGS. 5 and 6 are reported respectively the dissolution speed curves under sink conditions (% age of active substance released against time) and the to solubilisation kinetics curves under non sink conditions (concentration of active substance against time) of a hydrophobic drug (DHEA)/hydrophilic carrier combination. The dissolution speed of the DHEA from the ternary composition is markedly greater with respect to that of the DHEA as such, reaching 70% release after 15 minutes and 90% after 60 minutes, against the respective 9% and 20% for DHEA as such. Regarding the kinetics, in the ternary composition, the oversaturation reached by DHEA, which reaches a concentration of over 80 μg/ml in 2 minutes against around 50 μg/ml of DHEA as such, is evident.
(§1) Furthermore, the percentage of active substance released under sink conditions and the solubilisation kinetics under non sink conditions have been determined.

[3] = Solubilisation kinetics under non sink conditions; conditions: thermodynamic from solid, in 2 minutes, read-out: concentration of DHEA reached (solubilisation kinetics, oversaturation)
Experimental: The dissolution speed of the DHEA from the ternary composition is markedly greater with respect to that of the DHEA as such, reaching 70% release after 15 minutes and 90% after 60 minutes, against the respective 9% and 20% for DHEA as such. Regarding the kinetics, in the ternary composition, the oversaturation reached by DHEA, which reaches a concentration of over 80 μg/ml in 2 minutes against around 50 μg/ml of DHEA as such, is evident.
as §1

SMILES	Active Substance Enthalpy [1]	percentage of active substance (DHEA) released ([2]; after 15 minutes)	percentage of active substance (DHEA) released ([2]; after 60 minutes)	solubility kinetic at 2 min [3]
Cc1cc(O)c(C2CC3CCC2(C)C3(C)C)cc1C (centres unmarked) [Xibornol, xibornol]	92.8 J/g			
C[C@]12CC[C@H](O)CC1=CC[C@@H]1[C@@H]2CC[C@]2(C)C(=O)CC[C@@H]12 [DHEA, dehydroepiandrosterone]	100 J/g	9%	20%	~50 µg/mL (≈ 173 µM)
Oc1ccc(C=Cc2cc(O)cc(O)c2)cc1 [Resveratrol, resveratrol]	317.7 J/g			
CC(=O)OCC(=O)[C@@]1(O)CC[C@H]2[C@@H]3CCC4=CC(=O)CC[C@]4(C)[C@H]3[C@@H](O)C[C@@]21C [HCA, hydrocortisone acetate]	117.9 J/g			
CC(=O)N[C@@H](CS)C(=O)O [NAC, N-acetyl cystein]	192.9 J/g			
